pIC50: −log10 of the molar value.
What was measured:
[1] = target: RAF proto-oncogene serine/threonine-protein kinase (Homo sapiens) (UniProt P04049); assay: Inhibition of c-RAF (unknown origin) using [33P]ATP by […] assay
HepG2 = assay: Cytotoxicity against human HepG2 cells after 72 hrs by MTT assay; format: functional, cell-based; conditions: HepG2, 72 h
[2] = Cytotoxicity against human KCC-853 cells after 72 hrs by MTT assay; format: functional, cell-based; conditions: KCC-853, 72 h
A549 = assay: Cytotoxicity against human A549 cells after 72 hrs by MTT assay; format: functional, cell-based; conditions: A549, 72 h
[3] = target: Fibroblast growth factor receptor 1 (Homo sapiens) (UniProt P11362); assay: Inhibition of FGFR1 (unknown origin) at 10 uM
Sequence of Fibroblast growth factor receptor 1 (Homo sapiens) (P11362 22-822 limits assumed): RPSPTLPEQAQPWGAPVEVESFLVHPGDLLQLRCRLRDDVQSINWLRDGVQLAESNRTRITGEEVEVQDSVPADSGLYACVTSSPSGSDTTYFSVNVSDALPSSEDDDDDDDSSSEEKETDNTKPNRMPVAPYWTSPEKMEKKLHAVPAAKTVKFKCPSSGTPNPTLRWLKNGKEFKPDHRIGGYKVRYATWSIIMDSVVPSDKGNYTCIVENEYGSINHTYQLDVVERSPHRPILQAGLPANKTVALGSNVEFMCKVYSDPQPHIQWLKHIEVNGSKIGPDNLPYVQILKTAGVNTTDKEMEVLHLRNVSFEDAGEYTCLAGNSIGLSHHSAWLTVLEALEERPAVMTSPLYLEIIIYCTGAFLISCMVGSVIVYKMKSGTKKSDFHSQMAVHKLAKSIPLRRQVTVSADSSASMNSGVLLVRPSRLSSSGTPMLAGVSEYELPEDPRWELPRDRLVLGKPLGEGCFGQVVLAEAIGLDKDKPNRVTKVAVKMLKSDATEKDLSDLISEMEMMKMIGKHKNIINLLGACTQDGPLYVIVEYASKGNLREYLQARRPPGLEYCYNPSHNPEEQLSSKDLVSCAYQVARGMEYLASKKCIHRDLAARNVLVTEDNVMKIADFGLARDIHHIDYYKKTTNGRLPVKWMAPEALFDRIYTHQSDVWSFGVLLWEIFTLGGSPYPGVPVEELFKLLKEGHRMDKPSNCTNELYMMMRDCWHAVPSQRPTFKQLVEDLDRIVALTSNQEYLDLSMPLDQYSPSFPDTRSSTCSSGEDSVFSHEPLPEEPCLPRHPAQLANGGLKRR

[4] = target: Focal adhesion kinase 1 (Homo sapiens) (UniProt Q05397); assay: Inhibition of PTK2 (unknown origin) at 10 uM
Homo sapiens = species on record: Homo sapiens; assay: Inhibition of PKA (unknown origin) at 10 uM
[5] = target: Angiopoietin-1 receptor (Homo sapiens) (UniProt Q02763); assay: Inhibition of TIE2 (unknown origin) at 10 uM
[6] = target: Tyrosine-protein kinase ABL1 (Homo sapiens) (UniProt P00519); assay: Inhibition of ABL1 (unknown origin) at 10 uM
[7] = target: Macrophage colony-stimulating factor 1 receptor (Homo sapiens) (UniProt P07333); assay: Inhibition of FMS (unknown origin) at 10 uM
Sequence of Macrophage colony-stimulating factor 1 receptor (Homo sapiens) (P07333 whole entry): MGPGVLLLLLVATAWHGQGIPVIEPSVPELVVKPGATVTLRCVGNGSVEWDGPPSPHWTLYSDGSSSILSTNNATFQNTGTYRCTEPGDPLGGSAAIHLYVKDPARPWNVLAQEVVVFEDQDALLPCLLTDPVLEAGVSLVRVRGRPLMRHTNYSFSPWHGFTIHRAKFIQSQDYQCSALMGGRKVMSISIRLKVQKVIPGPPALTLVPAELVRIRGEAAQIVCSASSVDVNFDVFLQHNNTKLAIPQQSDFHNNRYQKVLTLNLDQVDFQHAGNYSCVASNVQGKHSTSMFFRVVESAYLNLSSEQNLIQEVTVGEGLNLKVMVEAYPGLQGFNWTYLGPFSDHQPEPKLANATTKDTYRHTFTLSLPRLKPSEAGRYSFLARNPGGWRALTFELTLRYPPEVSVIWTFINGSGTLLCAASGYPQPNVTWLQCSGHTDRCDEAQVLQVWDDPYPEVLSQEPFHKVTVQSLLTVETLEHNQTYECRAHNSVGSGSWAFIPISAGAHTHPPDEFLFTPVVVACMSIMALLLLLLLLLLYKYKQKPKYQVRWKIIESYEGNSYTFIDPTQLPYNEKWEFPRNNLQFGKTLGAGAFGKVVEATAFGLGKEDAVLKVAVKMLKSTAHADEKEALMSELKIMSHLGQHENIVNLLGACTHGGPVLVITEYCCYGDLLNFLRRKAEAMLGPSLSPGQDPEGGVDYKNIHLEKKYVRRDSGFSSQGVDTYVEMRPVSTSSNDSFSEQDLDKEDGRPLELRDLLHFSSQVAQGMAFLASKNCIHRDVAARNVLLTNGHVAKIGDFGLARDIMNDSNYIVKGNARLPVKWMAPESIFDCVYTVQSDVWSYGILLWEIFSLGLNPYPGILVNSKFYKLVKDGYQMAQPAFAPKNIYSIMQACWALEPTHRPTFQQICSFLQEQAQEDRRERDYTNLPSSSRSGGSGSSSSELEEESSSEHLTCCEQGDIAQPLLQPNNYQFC

[8] = target: RAF proto-oncogene serine/threonine-protein kinase (Homo sapiens) (UniProt P04049); assay: Inhibition of c-RAF (unknown origin) at 10 uM
[9] = target: Platelet-derived growth factor receptor alpha (Homo sapiens) (UniProt P16234); assay: Inhibition of PDGFR-alpha (unknown origin) at 10 uM
[10] = target: Vascular endothelial growth factor receptor 2 (Homo sapiens) (UniProt P35968); assay: Inhibition of KDR (unknown origin) at 10 uM
Sequence of Vascular endothelial growth factor receptor 2 (Homo sapiens) (P35968 whole entry): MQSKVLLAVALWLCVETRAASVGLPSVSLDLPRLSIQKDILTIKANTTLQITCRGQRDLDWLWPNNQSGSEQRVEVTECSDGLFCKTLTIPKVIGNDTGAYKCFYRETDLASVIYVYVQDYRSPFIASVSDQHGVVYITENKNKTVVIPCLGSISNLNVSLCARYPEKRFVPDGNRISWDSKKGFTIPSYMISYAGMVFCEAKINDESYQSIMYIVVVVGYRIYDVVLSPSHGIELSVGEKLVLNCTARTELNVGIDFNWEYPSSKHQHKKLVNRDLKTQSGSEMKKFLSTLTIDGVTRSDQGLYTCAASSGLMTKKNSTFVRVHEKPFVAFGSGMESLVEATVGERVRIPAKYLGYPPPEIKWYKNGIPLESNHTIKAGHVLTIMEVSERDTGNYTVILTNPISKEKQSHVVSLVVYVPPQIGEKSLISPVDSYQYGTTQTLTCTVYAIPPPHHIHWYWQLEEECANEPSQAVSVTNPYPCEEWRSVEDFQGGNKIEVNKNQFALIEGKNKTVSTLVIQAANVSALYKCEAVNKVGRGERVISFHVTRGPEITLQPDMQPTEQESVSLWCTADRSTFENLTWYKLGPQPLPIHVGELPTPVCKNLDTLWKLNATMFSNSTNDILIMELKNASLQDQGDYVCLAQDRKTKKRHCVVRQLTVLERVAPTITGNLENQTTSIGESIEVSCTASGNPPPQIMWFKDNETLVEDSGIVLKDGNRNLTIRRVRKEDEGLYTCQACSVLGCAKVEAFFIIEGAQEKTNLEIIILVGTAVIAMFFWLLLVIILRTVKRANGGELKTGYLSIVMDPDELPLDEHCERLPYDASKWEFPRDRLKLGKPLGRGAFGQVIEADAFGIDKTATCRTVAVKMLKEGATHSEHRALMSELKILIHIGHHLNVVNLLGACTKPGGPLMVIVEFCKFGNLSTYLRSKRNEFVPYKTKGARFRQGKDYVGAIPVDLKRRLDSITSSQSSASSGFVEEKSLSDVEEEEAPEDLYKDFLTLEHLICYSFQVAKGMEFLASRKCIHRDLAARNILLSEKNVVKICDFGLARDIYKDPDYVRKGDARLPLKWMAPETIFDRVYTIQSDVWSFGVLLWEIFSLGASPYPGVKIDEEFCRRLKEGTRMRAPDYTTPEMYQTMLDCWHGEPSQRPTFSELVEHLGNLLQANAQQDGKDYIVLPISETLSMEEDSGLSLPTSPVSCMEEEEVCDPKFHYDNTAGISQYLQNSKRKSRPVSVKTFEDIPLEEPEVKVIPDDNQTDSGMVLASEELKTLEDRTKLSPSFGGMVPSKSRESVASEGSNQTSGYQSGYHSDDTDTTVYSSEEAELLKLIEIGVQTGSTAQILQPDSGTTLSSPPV

[11] = target: Tyrosine-protein kinase JAK2 (Homo sapiens) (UniProt O60674); assay: Inhibition of JAK2 (unknown origin) at 10 uM
Sequence of Tyrosine-protein kinase JAK2 (Homo sapiens) (O60674 whole entry): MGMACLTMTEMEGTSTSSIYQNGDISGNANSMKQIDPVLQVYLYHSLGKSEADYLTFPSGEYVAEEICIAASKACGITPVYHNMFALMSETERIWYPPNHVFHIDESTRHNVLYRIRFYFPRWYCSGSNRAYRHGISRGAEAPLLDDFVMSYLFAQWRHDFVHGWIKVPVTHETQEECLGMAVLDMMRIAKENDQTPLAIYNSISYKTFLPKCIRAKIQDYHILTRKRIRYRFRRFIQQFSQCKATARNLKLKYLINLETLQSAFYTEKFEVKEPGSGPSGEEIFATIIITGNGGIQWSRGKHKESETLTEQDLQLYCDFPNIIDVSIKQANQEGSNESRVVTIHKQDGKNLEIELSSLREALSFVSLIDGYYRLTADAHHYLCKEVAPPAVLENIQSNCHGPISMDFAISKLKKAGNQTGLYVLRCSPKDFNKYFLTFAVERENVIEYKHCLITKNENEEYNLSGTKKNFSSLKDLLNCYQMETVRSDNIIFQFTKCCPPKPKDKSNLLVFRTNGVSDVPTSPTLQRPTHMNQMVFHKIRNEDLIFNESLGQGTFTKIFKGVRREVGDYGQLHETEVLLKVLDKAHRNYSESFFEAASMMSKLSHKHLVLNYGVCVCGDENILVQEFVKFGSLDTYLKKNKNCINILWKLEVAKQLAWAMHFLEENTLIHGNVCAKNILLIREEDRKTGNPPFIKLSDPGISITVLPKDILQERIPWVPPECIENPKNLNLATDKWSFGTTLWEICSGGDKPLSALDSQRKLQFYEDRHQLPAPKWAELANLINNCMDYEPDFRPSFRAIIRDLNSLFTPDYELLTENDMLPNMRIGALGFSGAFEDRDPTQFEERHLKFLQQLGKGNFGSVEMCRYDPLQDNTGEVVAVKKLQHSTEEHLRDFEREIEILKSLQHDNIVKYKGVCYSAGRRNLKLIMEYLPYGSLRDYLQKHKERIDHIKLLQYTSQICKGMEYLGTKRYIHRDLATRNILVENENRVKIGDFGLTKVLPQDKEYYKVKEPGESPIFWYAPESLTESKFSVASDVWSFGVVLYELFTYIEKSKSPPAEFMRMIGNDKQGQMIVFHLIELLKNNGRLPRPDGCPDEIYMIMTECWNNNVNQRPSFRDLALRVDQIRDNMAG

[12] = target: Receptor-type tyrosine-protein kinase FLT3 (Homo sapiens) (UniProt P36888); assay: Inhibition of FLT3 (unknown origin) at 10 uM
[13] = target: Inhibitor of nuclear factor kappa-B kinase subunit beta (Homo sapiens) (UniProt O14920); assay: Inhibition of IKKbeta (unknown origin) at 10 uM
[14] = target: RAC-alpha serine/threonine-protein kinase (Homo sapiens) (UniProt P31749); assay: Inhibition of AKT1 (unknown origin) at 10 uM
[15] = target: Mast/stem cell growth factor receptor Kit (Homo sapiens) (UniProt P10721); assay: Inhibition of c-Kit (unknown origin) at 10 uM
[16] = target: Cyclin-dependent kinase 2 (Homo sapiens) (UniProt P24941); assay: Inhibition of CDK2 (unknown origin) at 10 uM
[17] = target: Hepatocyte growth factor receptor (Homo sapiens) (UniProt P08581); assay: Inhibition of c-MET (unknown origin) at 10 uM
[18] = target: Tyrosine-protein kinase SYK (Homo sapiens) (UniProt P43405); assay: Inhibition of SYK (unknown origin) at 10 uM
[19] = target: Tyrosine-protein kinase Fyn (Homo sapiens) (UniProt P06241); assay: Inhibition of FYN (unknown origin) at 10 uM
[20] = target: Serine/threonine-protein kinase PLK1 (Homo sapiens) (UniProt P53350); assay: Inhibition of PLK1 (unknown origin) at 10 uM
[21] = target: Vascular endothelial growth factor receptor 2 (Homo sapiens) (UniProt P35968); assay: Inhibition of VEGFR2 (unknown origin) at 10 uM

Sequence of RAF proto-oncogene serine/threonine-protein kinase (Homo sapiens) (P04049 whole entry): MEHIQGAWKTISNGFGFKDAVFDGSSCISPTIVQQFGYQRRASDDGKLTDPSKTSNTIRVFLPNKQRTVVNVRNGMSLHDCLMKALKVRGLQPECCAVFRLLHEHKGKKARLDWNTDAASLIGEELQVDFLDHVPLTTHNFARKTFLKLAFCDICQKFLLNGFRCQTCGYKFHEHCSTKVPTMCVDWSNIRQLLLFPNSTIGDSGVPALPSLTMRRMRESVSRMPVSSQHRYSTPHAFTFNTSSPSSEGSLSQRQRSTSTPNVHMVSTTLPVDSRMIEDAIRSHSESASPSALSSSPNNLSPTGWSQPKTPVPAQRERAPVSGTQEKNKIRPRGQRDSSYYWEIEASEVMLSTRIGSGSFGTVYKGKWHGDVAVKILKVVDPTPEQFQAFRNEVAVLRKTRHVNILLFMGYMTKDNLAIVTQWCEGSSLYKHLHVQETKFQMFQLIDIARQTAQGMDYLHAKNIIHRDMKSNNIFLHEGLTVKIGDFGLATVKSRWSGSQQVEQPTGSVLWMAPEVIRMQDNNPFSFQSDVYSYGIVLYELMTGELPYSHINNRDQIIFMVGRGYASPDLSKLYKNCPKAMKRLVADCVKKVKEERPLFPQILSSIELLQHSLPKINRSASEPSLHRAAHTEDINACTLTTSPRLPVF

Compound	pIC50 [1]	pIC50 (HepG2)	pIC50 [2]	pIC50 (A549)	further results
CC1(C)C(=O)Nc2cc3nccc(Oc4ccc(NC(=O)Nc5cccc(F)c5)cc4)c3cc21	7.43	4.92	4.98	5.26	
Cc1cc(NC(=O)Nc2ccc(Oc3ccnc4cc5c(cc34)C(C)(C)C(=O)N5)cc2)no1	7.23	4.50	5.00	5.19	
CNC(=O)c1cc(Oc2ccc(NC(=O)Nc3ccc(Cl)c(C(F)(F)F)c3)cc2)ccn1 [SORAFENIB]	7.55	4.90	5.17	5.28	
Cc1cccc(C)c1NC(=O)Nc1ccc(Oc2ccnc3cc4c(cc23)C(C)(C)C(=O)N4)c(Cl)c1	7.55	4.95	5.36	5.41	
CC1(C)C(=O)Nc2cc3nccc(Oc4ccc(NC(=O)Nc5ccc(F)c(C(F)(F)F)c5)cc4Cl)c3cc21	8.06	5.20	5.96	6.04	inhibition [3]: 20.2%; inhibition [4]: 3.6%; inhibition (Homo sapiens): 1.3%; inhibition [5]: 22.3%; inhibition [6]: 26.2%; inhibition [7]: 46.9%; inhibition [8]: 94.6%; inhibition [9]: 0.3%; inhibition [10]: 1.4%; inhibition [11]: 0.2%; inhibition [12]: 15.3%; inhibition [13]: 4.7%; inhibition [14]: 16.5%; inhibition [15]: 18.7%; inhibition [16]: 7.8%; inhibition [17]: 1.5%; inhibition [18]: 15%; inhibition [19]: 0.6%; inhibition [20]: 4.9%; inhibition [21]: 34.1%
Cc1cccc(C)c1NC(=O)Nc1ccc(Oc2ccnc3cc4c(cc23)C(C)(C)C(=O)N4)cc1	7.28	4.69	4.99	4.98	
Cc1cccc(C)c1NC(=O)Nc1ccc(Oc2ccnc3cc4c(cc23)C(C)(C)C(=O)N4)c(F)c1	7.52	4.99	5.43	5.39	
CC1(C)C(=O)Nc2cc3nccc(Oc4ccc(NC(=O)Nc5cccc(F)c5)cc4Cl)c3cc21	7.66	5.13	5.19	5.36	
Cc1cc(NC(=O)Nc2ccc(Oc3ccnc4cc5c(cc34)C(C)(C)C(=O)N5)c(Cl)c2)no1	7.73	5.07	5.23	5.24	
CC1(C)C(=O)Nc2cc3nccc(Oc4ccc(NC(=O)Nc5cccc(F)c5)cc4F)c3cc21	7.60	4.81	5.25	5.11	
CC1(C)C(=O)Nc2cc3nccc(Oc4ccc(NC(=O)Nc5ccc(F)c(C(F)(F)F)c5)cc4)c3cc21	7.83	5.02	5.37	5.50	
CC1(C)C(=O)Nc2cc3nccc(Oc4ccc(NC(=O)Nc5ccc(F)c(C(F)(F)F)c5)cc4F)c3cc21	7.80	5.09	5.55	5.67	
Cc1cc(NC(=O)Nc2ccc(Oc3ccnc4cc5c(cc34)C(C)(C)C(=O)N5)c(F)c2)no1	7.57	4.92	5.38	5.30	

— ChEMBL document CHEMBL3217507, “3,3-Dimethyl-1H-pyrrolo[3,2-g]quinolin-2(3H)-one derivatives as novel Raf kinase inhibitors” (Medchemcomm, 2013)
